Measurements as given in ChEMBL document CHEMBL1201862, “PubChem BioAssay data set” (2004).
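Briefly, cells in 96-well plates were exposed to five compound concentrations for 48 h, and endpoints were estimated by linear interpolation. GI50: concentration for 50% inhibition of growth.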 Calls of active or inactive are those of the source. No stated cut-off is given here; in the data, active = GI50 up to about 1.1 µM and inactive = higher.

Legend:
Assay in all cases: NCI anticancer screen, dose series, 48 h
DLD-1 = system: DLD-1
DMS-114 = system: DMS-114
DMS-273 = system: DMS-273
HOP-18 = system: HOP-18
LXFL 529 = system: LXFL 529
SNB-78 = system: SNB-78
XF498 = system: XF498
M19-MEL = system: M19-MEL
RXF 631 = system: RXF 631

SMILES	GI50 (DLD-1)	GI50 (DMS-114)	GI50 (DMS-273)	GI50 (HOP-18)	GI50 (LXFL 529)	GI50 (SNB-78)	GI50 (XF498)	GI50 (M19-MEL)	GI50 (RXF 631)
N=C(N)NS(=O)(=O)c1ccc(NC(=O)c2cccc3c(Nc4ccc(S(=O)(=O)N=C(N)N)cc4)c4ccc(Cl)cc4nc23)cc1	67.1 µM (inactive)	31.2 µM (inactive)	> 100 µM (inactive)	> 100 µM (inactive)	33 µM (inactive)	81.3 µM (inactive)	67.3 µM (inactive)		
CCCCCCn1c(SCC)c2ccccc2c1-c1nc(F)nc(F)n1	> 100 µM (inactive)	> 100 µM (inactive)	> 100 µM (inactive)		> 100 µM (inactive)	> 100 µM (inactive)	> 100 µM (inactive)	> 100 µM (inactive)	
O=C1/C(=C/c2ccccc2)CN(C(=O)Oc2ccc([N+](=O)[O-])cc2)C/C1=C\c1ccccc1	1.79 µM (inactive)	2.11 µM (inactive)	0.883 µM (active)	> 10 µM (inactive)	2.02 µM (inactive)	5.16 µM (inactive)	> 10 µM (inactive)	1.77 µM (inactive)	
Cc1cc(CC(O)c2ccc(Cl)c(Cl)c2)nc(O)n1 (stereo not drawn)	18.7 µM (inactive)	8.49 µM (inactive)			20.9 µM (inactive)	76.2 µM (inactive)	18.4 µM (inactive)	58.6 µM (inactive)	
COc1ccc(/C=C2\CCCCC2=O)cc1	> 100 µM (inactive)	> 100 µM (inactive)	> 100 µM (inactive)	> 100 µM (inactive)	> 100 µM (inactive)	> 100 µM (inactive)	> 100 µM (inactive)	> 100 µM (inactive)	
COC(OC)[C@@H](C)[C@H](O)[C@](C)(O)C1OC(C)(C)OC(C(C)C=C(C)C)C1C (stereo partly drawn)	> 100 µM (inactive)	94.6 µM (inactive)	> 100 µM (inactive)	> 100 µM (inactive)	> 100 µM (inactive)	> 100 µM (inactive)	> 100 µM (inactive)	> 100 µM (inactive)	
CCC(/C=C/C1OC(=O)C=CC1C)=C\C(C)C/C=C/C(C)=C/C(C)C(=O)C(C)C(O)C(C)C/C(C)=C/C(=O)O (stereo not drawn)	1.43 µM (inactive)	0.847 µM (active)	1.1 µM (active)	6.04 µM (inactive)		3.21 µM (inactive)		1.16 µM (inactive)	
O=C(O)C#CCO		> 100 µM (inactive)	> 100 µM (inactive)		> 100 µM (inactive)	> 100 µM (inactive)	> 100 µM (inactive)	> 100 µM (inactive)	> 100 µM (inactive)
Cc1nc(Nc2ccc(Cl)c(Cl)c2)sc1C(/C=C/c1ccc2c(c1)OCO2)=N/Nc1ccc([N+](=O)[O-])cc1[N+](=O)[O-]	> 100 µM (inactive)	51.8 µM (inactive)	32 µM (inactive)		> 68.5 µM (inactive)	2.27 µM (inactive)	13.9 µM (inactive)	> 100 µM (inactive)	
Cc1ccc(Nc2nc(-c3ccc(-c4ccc([N+](=O)[O-])cc4)o3)cs2)cc1	41.4 µM (inactive)		42.6 µM (inactive)		29.3 µM (inactive)	66.5 µM (inactive)		51.2 µM (inactive)	
CC(Cn1c2c3ccccc3ccc2c2oc(=O)c3ccccc3c21)N(C)C (stereo not drawn)	> 100 µM (inactive)	> 100 µM (inactive)			> 100 µM (inactive)	> 100 µM (inactive)	> 100 µM (inactive)		
COc1cccc(C2c3cc4c(cc3OC(O)(CO)C2C(=O)O)OCO4)c1.COc1cccc(C2c3cc4c(cc3OC3(O)COC(=O)C23)OCO4)c1 (stereo not drawn)	48.9 µM (inactive)	49.4 µM (inactive)	65.3 µM (inactive)	> 100 µM (inactive)	57.9 µM (inactive)			76.9 µM (inactive)	75.5 µM (inactive)
[O-]c1c2cc(-[n+]3c(-c4ccccc4)cc(-c4ccccc4)cc3-c3ccccc3)cc1COCCOCCOCCOCCOC2	44 µM (inactive)		45.9 µM (inactive)	57.3 µM (inactive)	21.2 µM (inactive)			30.8 µM (inactive)	
COc1ccccc1NC(=O)C(CC(C(=O)Nc1ccccc1OC)/C(C)=N/NC(=O)c1ccccc1O)/C(C)=N/NC(=O)c1ccccc1O (stereo not drawn)	57.5 µM (inactive)	70.8 µM (inactive)	> 100 µM (inactive)		66.4 µM (inactive)	> 100 µM (inactive)	> 100 µM (inactive)	> 100 µM (inactive)	69.8 µM (inactive)
Cc1cc(N(CCC#N)CCC#N)ccc1/C=C/C(=O)Nc1cccc(Cl)c1	> 100 µM (inactive)	> 100 µM (inactive)	> 100 µM (inactive)		29.7 µM (inactive)		> 100 µM (inactive)	> 100 µM (inactive)	> 100 µM (inactive)
COc1ccc2c(=O)c(-c3cc(OC)c(OC)cc3OC)coc2c1	3.95 µM (inactive)	3.02 µM (inactive)	1.85 µM (inactive)		6.27 µM (inactive)	4.21 µM (inactive)	2.58 µM (inactive)	4.15 µM (inactive)	5.4 µM (inactive)
COc1ccc2c(c1)c1ccc3c(c1n2C)C(=O)C=CC3=O	7.4 µM (inactive)	20.7 µM (inactive)	24.3 µM (inactive)	12.2 µM (inactive)	14.1 µM (inactive)	20.9 µM (inactive)	17.2 µM (inactive)	25.4 µM (inactive)	20 µM (inactive)
COC(=O)C(c1ccc(OC)cc1)N1C(=O)[C@@H](NC(=O)c2ccccc2)[C@H]1[C@@H](C)O (stereo partly drawn)	> 100 µM (inactive)		> 100 µM (inactive)		> 100 µM (inactive)	> 100 µM (inactive)	> 100 µM (inactive)	> 100 µM (inactive)	
O=c1[nH]c2cc([N+](=O)[O-])ccc2nc1/C(=N/Nc1ccccc1)C(O)c1ccccc1Cl (stereo not drawn)	> 100 µM (inactive)	6.75 µM (inactive)	34.8 µM (inactive)		28.1 µM (inactive)	> 100 µM (inactive)	> 100 µM (inactive)	52.8 µM (inactive)	
CCCCCCCCCCCCCCCCP(=O)(OC)OC	17.5 µM (inactive)	16.1 µM (inactive)	14.5 µM (inactive)	15 µM (inactive)	15.8 µM (inactive)	17.7 µM (inactive)	13.1 µM (inactive)	16.4 µM (inactive)	16.9 µM (inactive)
Nc1ncnc2c1ncn2CCCC(c1ccccc1)P(=O)(O)O (stereo not drawn)	> 100 µM (inactive)	> 100 µM (inactive)	> 100 µM (inactive)		> 100 µM (inactive)	> 100 µM (inactive)	> 100 µM (inactive)	> 100 µM (inactive)	
CCOC(=O)C(=O)Nc1c(F)cc(F)cc1Br	> 100 µM (inactive)	> 100 µM (inactive)			> 100 µM (inactive)	> 100 µM (inactive)	> 100 µM (inactive)	> 100 µM (inactive)	
CC1(C)CC[C@]2(C(=O)O)CCC3(C)C(=CCC4[C@@]5(C)CC[C@H](OC6OCC(O)C(O)C6OC6OC(CO)C(O)C(O)C6O)C(C)(C)C5CC[C@]43C)C2C1 (stereo partly drawn)	8.61 µM (inactive)	2.04 µM (inactive)	2.06 µM (inactive)	1.95 µM (inactive)	1.9 µM (inactive)	2.76 µM (inactive)	1.94 µM (inactive)	1.83 µM (inactive)	1.74 µM (inactive)
O=C1C(Br)=CC2(C=C1Br)CCNC1=C2C(=O)c2ccccc2C1=O	9.25 µM (inactive)	5.7 µM (inactive)		32.2 µM (inactive)	5.37 µM (inactive)	11.2 µM (inactive)		4.66 µM (inactive)	5.69 µM (inactive)
CN(C)CCCN1N=Nc2cccc3cccc1c23	> 60.1 µM (inactive)	> 42.1 µM (inactive)	19.4 µM (inactive)	99.3 µM (inactive)	> 50.9 µM (inactive)	62.4 µM (inactive)	86.9 µM (inactive)	> 51.4 µM (inactive)	87.5 µM (inactive)
C/C(CC(=O)Nc1cc(C)ccc1C)=N/N=C(N)N	> 100 µM (inactive)	> 100 µM (inactive)	> 100 µM (inactive)		> 100 µM (inactive)	> 100 µM (inactive)	> 100 µM (inactive)	> 100 µM (inactive)	
CCc1cccc(C(C)CC)c1NC(=O)C(=O)C(CC(=O)Nc1ccc(Cl)c(Cl)c1)C(=O)OC (stereo not drawn)	> 100 µM (inactive)	36.8 µM (inactive)	15.9 µM (inactive)		16.7 µM (inactive)	> 100 µM (inactive)		36.8 µM (inactive)	
CC(=O)OCC1OC(OC2CC3C(C)(C)C(OC(C)=O)CC[C@]3(C)C3CCC45CC4(CC[C@H]5C(C)CC(O)C4OC4(C)C)[C@]23C)C(O)C(O)C1O (stereo partly drawn)	1.79 µM (inactive)	1.58 µM (inactive)	1.99 µM (inactive)	2.2 µM (inactive)	3.11 µM (inactive)	5.71 µM (inactive)	1.53 µM (inactive)	1.93 µM (inactive)	2.32 µM (inactive)
Cc1nc(NC(=S)NC(=O)c2ccc(Cl)c(Cl)c2)sc1C(=O)/C=C/c1ccccc1[N+](=O)[O-]	48.9 µM (inactive)		20.9 µM (inactive)	12.4 µM (inactive)	21.6 µM (inactive)	30.1 µM (inactive)	20.6 µM (inactive)	26.8 µM (inactive)	24.1 µM (inactive)
